Source: patent US11739098B2 (BRISTOL-MYERS SQUIBB COMPANY, priority 2017, dated 2023)

Experiments:
Format in all cases: cell-based
[1] = molecular target: T1, human TLR7 (Homo sapiens, UniProt Q9NYK1); assay: TLR7 inhibition reporter assay (HEK-Blue cells, SEAP reporter, gardiquimod stimulation); details: HEK-Blue cells overexpressing human TLR7, SEAP reporter, gardiquimod 7.5 μM
T1 construct: host or cells: HEK-Blue cells (HEK293-derived reporter line)
T1 sequence (Q9NYK1 27-1049): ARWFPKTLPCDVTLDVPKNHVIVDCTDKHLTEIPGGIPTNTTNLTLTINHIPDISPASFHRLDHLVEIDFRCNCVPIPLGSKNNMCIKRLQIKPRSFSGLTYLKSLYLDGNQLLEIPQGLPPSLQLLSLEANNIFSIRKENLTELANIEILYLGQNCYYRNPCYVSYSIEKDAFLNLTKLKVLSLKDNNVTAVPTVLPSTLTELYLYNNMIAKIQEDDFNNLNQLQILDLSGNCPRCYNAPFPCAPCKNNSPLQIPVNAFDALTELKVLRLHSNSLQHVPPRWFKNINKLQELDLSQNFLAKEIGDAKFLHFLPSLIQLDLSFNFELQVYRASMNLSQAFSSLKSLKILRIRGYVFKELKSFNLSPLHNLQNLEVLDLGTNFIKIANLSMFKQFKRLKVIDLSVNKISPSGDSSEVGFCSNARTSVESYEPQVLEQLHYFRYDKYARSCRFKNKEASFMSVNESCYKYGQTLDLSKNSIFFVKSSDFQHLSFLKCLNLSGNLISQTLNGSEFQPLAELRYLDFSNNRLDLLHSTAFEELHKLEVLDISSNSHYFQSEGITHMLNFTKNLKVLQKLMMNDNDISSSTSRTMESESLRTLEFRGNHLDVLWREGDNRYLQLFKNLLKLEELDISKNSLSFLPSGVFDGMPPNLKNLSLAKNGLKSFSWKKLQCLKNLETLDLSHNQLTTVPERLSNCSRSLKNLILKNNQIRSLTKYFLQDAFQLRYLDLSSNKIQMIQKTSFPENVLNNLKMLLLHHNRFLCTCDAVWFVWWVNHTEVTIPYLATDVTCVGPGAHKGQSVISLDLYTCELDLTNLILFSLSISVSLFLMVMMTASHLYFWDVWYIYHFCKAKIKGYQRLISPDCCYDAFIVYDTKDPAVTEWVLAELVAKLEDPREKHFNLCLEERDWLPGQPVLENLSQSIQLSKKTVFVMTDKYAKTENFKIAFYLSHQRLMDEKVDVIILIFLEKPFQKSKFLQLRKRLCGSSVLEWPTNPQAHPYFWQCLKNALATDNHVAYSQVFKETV
In short: (§1)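 After 22 h at 37 °C, SEAP secretion was measured from human TLR7-, TLR8- or TLR9-expressing HEK-Blue reporter cells given compound (0.05 nM–50 μM) 30 min before agonist: 7.5 μM gardiquimod, 15.9 μM R848 or 5 nM ODN2006 respectively. Percent inhibition referenced to agonist-plus-DMSO and known-inhibitor wells.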

[2] = molecular target: T2, human TLR9 (Homo sapiens, UniProt Q9NR96); assay: TLR9 inhibition reporter assay (HEK-Blue cells, SEAP reporter, ODN2006 stimulation); details: HEK-Blue cells overexpressing human TLR9, SEAP reporter, ODN2006 5 nM
T2 construct: host or cells: HEK-Blue cells (HEK293-derived reporter line)
T2 sequence (Q9NR96 26-1032): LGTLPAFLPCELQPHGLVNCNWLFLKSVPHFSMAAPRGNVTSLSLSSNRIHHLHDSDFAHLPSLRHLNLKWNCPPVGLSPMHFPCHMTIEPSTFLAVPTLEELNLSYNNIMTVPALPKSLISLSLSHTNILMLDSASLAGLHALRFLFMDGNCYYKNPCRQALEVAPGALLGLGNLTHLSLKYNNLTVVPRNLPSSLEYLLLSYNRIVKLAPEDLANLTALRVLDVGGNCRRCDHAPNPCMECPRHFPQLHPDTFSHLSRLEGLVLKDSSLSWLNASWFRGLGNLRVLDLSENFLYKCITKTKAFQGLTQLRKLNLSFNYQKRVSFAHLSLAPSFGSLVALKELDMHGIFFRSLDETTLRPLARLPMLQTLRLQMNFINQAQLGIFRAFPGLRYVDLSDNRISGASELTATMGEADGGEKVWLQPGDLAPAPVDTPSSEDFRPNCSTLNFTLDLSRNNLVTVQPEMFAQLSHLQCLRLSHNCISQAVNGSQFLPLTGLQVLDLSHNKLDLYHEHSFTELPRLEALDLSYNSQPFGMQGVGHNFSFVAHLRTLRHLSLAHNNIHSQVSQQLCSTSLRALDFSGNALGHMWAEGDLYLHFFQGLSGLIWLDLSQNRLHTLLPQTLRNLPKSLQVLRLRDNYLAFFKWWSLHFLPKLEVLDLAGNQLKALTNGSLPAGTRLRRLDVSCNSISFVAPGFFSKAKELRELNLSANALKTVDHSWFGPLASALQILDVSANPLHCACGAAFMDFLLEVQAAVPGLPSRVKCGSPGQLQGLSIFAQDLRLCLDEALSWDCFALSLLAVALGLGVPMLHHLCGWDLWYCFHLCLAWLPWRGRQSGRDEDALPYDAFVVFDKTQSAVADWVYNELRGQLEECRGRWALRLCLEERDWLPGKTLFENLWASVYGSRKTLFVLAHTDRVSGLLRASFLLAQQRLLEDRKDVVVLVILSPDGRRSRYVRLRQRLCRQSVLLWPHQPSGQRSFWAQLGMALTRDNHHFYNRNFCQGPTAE
In short: as §1

[3] = molecular target: T3, human TLR8 (Homo sapiens, UniProt Q9NR97); assay: TLR8 inhibition reporter assay (HEK-Blue cells, SEAP reporter, R848 stimulation); details: HEK-Blue cells overexpressing human TLR8, SEAP reporter, R848 15.9 μM
T3 construct: host or cells: HEK-Blue cells (HEK293-derived reporter line)
T3 sequence (Q9NR97 27-1041): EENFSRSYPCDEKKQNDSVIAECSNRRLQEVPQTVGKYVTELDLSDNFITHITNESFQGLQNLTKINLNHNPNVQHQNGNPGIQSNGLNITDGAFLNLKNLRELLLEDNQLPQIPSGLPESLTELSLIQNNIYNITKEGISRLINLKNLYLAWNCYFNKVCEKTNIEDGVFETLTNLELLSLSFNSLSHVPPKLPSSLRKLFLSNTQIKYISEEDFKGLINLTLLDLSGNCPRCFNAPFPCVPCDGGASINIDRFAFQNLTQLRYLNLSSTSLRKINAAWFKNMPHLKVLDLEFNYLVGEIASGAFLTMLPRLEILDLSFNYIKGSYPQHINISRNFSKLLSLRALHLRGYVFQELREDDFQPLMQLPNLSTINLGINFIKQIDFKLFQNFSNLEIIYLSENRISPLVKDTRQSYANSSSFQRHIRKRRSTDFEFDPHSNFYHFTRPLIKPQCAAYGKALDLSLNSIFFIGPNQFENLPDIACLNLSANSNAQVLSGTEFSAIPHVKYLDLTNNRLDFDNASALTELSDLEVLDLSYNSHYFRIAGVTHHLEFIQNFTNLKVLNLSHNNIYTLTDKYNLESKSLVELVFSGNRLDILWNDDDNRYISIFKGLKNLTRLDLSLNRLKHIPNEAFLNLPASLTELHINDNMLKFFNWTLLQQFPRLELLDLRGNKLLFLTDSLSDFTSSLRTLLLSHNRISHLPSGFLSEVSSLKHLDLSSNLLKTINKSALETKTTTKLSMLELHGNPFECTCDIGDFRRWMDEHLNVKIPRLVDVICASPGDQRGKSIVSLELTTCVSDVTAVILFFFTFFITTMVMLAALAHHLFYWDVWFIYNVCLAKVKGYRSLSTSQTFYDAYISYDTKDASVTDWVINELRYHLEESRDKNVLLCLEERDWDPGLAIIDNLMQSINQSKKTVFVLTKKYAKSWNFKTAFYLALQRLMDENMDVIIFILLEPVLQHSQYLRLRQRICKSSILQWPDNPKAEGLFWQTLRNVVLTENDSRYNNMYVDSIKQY
In short: as §1

IC50 [1] [nM] | IC50 [2] [nM] | IC50 [3] [nM] | Compound
< 100 | 1000 to 50000 | < 100 | Cc1c(-c2[nH]c3ccc(C4CCN(CC(C)(C)O)CC4)cc3c2C(C)C)nn2ncnc2c1C [Example 747, 1-(4-(2-(7,8-dimethyl-[1,2,4]triazolo[1,5-b]pyridazin-6-yl)-3-isopropyl-1H-indol-5-yl)piperidin-1-yl)-2-methylpropan-2-ol]
< 100 | 100 to 1000 | < 100 | CC(C)c1c(-c2ccnc3[nH]ncc23)[nH]c2ccc(C3CCN(C4CCNCC4)CC3)cc12 [Example 832, 4-(5-([1,4′-bipiperidin]-4-yl)-3-isopropyl-1H-indol-2-yl)-1H-pyrazolo[3,4-b]pyridine]
100 to 1000 | 100 to 1000 | 100 to 1000 | CCc1c(-c2ccn3cnnc3c2)[nH]c2ccc(C3CCNCC3)cc12 [Example 204, 7-(3-ethyl-5-(piperidin-4-yl)-1H-indol-2-yl)-[1,2,4]triazolo[4,3-a]pyridine]
< 100 | 100 to 1000 | < 100 | Cc1cc(-c2[nH]c3ccc(C4CCN(C5COC5)CC4)cc3c2C(C)C)cn2ccnc12 [Example 719, 6-(3-isopropyl-5-(1-(oxetan-3-yl)piperidin-4-yl)-1H-indol-2-yl)-8-methylimidazo[1,2-a]pyridine]
1000 to 50000 | 1000 to 50000 | 100 to 1000 | CC(C)c1c(-c2n[nH]c3nc[nH]c(=O)c23)[nH]c2ccc(C3CCNCC3)cc12 [Example 21, 3-(3-isopropyl-5-(piperidin-4-yl)-1H-indol-2-yl)-1,5-dihydro-4H-pyrazolo[3,4-d]pyrimidin-4-one]
100 to 1000 | 1000 to 50000 | 100 to 1000 | CCc1c(-c2n[nH]c3ncccc23)[nH]c2ccc(C3CCNCC3)cc12 [Example 244, 3-(3-ethyl-5-(piperidin-4-yl)-1H-indol-2-yl)-1H-pyrazolo[3,4-b]pyridine]

The next lines start with the compound.

Compound | IC50 [1] [nM] | IC50 [2] [nM] | IC50 [3] [nM]
CC(C)c1c(-c2ccnc3[nH]ncc23)[nH]c2ccc(C3CCN(Cc4ncn(C)n4)CC3)cc12 [Example 865, 4-(3-isopropyl-5-(1-((1-methyl-1H-1,2,4-triazol-3-yl)methyl)piperidin-4-yl)-1H-indol-2-yl)-1H-pyrazolo[3,4-b]pyridine] | < 100 | 1000 to 50000 | < 100
Cc1cc2ncnn2nc1-c1[nH]c2ccc(C3CCN(C4CCOCC4)CC3)cc2c1C(C)C [Example 687, 6-(3-isopropyl-5-(1-(tetrahydro-2H-pyran-4-yl)piperidin-4-yl)-1H-indol-2-yl)-7-methyl-[1,2,4]triazolo[1,5-b]pyridazine] | < 100 | 1000 to 50000 | < 100
Cc1cc(-c2[nH]c3ccc(C4CCN(C(=O)CCN5CCCC5)CC4)cc3c2C(C)C)cn2nnnc12 [Example 618, 1-(4-(3-isopropyl-2-(8-methyltetrazolo[1,5-a]pyridin-6-yl)-1H-indol-5-yl)piperidin-1-yl)-3-(pyrrolidin-1-yl)propan-1-one] | < 100 | 100 to 1000 | < 100
CNCC(=O)N1CCC(c2ccc3[nH]c(-c4cc(C)c5nccn5c4)c(C(C)C)c3c2)CC1 [Example 557, 1-(4-(3-isopropyl-2-(8-methylimidazo[1,2-a]pyridin-6-yl)-1H-indol-5-yl)piperidin-1-yl)-2-(methylamino)ethan-1-one] | < 100 | 100 to 1000 | < 100
Cc1cc(-c2[nH]c3ccc(C4CCN(C(=O)CCN5CC(C)(C)OC(C)(C)C5)CC4)cc3c2C(C)C)cn2nnnc12 [Example 621, 1-(4-(3-isopropyl-2-(8-methyltetrazolo[1,5-a]pyridin-6-yl)-1H-indol-5-yl)piperidin-1-yl)-3-(2,2,6,6-tetramethylmorpholino)propan-1-one] | < 100 | 1000 to 50000 | < 100
CNC(=O)CN1CCC(c2ccc3[nH]c(-c4cc(C)nc5ccccc45)c(C(C)C)c3c2)CC1 [Example 328, 2-(4-(3-isopropyl-2-(2-methylquinolin-4-yl)-1H-indol-5-yl)piperidin-1-yl)-N-methylacetamide] | < 100 | 1000 to 50000 | < 100
CC(C)c1c(-c2cnc3[nH]c(=O)oc3c2)[nH]c2ccc(C3CCNCC3)cc12 [Example 16, 6-(3-isopropyl-5-(piperidin-4-yl)-1H-indol-2-yl)oxazolo[4,5-b]pyridin-2(3H)-one] | 100 to 1000 | 1000 to 50000 | > 3130
CNCC(=O)N1CCC(c2ccc3[nH]c(-c4cn5cc(C)nc5cc4C)c(C(C)C)c3c2)CC1 [Example 510, 1-(4-(2-(2,7-dimethylimidazo[1,2-a]pyridin-6-yl)-3-isopropyl-1H-indol-5-yl)piperidin-1-yl)-2-(methylamino)ethan-1-one] | < 100 | 100 to 1000 | 1000 to 50000
OCc1c(-c2ccnc3[nH]ncc23)[nH]c2ccc(C3CCNCC3)cc12 [Example 176, (5-(piperidin-4-yl)-2-(1H-pyrazolo[3,4-b]pyridin-4-yl)-1H-indol-3-yl)methanol] | 1000 to 50000 | 1000 to 50000 | 1000 to 50000
